Structures can show the parent of a compound that is named as a salt.
Experiments:
human plasmin [1] = molecular target: T1, human plasmin (Homo sapiens, UniProt P00747); assay: biochemical; conditions: read-out: Plasmin S-2251 (I50)
Description: An inhibitor sample is dissolved in a 0.05M Tris-hydrochloric acid buffer solution (pH=7.4) to make the total volume of 400 μl. […] Then, 50 μl of a 0.2 casein unit/ml human plasmin is added and the mixture is incubated at a temperature of 37° C. for 4 minutes. Thereafter, the reaction is stopped by adding 50 μl of 50% acetic acid.
Thus, the concentration I50 (μmol) of the inhibitor sample, at which the absorbance is one half (i.e., 1/2) of that obtained in the absence of the inhibitor, is determined.

human plasmin [2] = molecular target: T1, human plasmin; assay: Antiplasmin activity: inhibition of fibrin decomposition; type: biochemical; conditions: Table 2; concentration at which fibrin dissolution time is extended twice, pH 7.4, 37° C.; read-out: Plasmin Fibrin (I50)
Description: (i) Determination of inhibition activity for fibrin decomposition
An inhibitor sample is dissolved in a 0.18M borate-physiological salt buffer solution (pH=7.4) to make the total volume to 600 μl. To this buffer solution, 200 μl of a 0.2% bovine fibrinogen, 100 μl of a 0.3 casein unit/ml human plasmin solution, and 100 μl of a 50 unit/ml bovine thrombin solution, all dissolved in the above-mentioned buffer, are added at a temperature of 37° C. in a constant temperature bath. Then, the dissolution time of the fibrin mass formed above is determined.

bovine trypsin = molecular target: T2, bovine trypsin (Bos taurus, UniProt P00760); assay: Antitrypsin activity: inhibition of S-2238 decomposition; type: biochemical; conditions: Table 2; S-2238 substrate, pH 8.1, 37° C.; read-out: Trypsin S-2238 (I50)
T2 sequence (P00760 24-246): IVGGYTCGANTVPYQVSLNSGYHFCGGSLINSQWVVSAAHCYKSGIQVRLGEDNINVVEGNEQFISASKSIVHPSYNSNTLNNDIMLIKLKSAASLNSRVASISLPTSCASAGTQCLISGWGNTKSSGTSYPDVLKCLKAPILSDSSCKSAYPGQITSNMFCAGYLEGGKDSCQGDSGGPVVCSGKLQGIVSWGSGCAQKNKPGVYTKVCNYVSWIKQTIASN

human plasma kallikrein = human plasma kallikrein (Homo sapiens, UniProt P03952); assay: Anti-plasma kallikrein activity: inhibition of S-2302 decomposition; type: biochemical; conditions: Table 2; S-2302 substrate, pH 7.8, 37° C.; read-out: Plasma Kallikrein S-2302 (I50)
human urokinase = human urokinase (Homo sapiens, UniProt P00749); assay: biochemical; conditions: Table 2; S-2444 substrate, pH 8.8, 37° C.; read-out: Urokinase S-2444 (I50)
Description: Determination of inhibition activity for S-2444 decomposition
An inhibitor sample is dissolved in a 0.05M Tris-hydrochloric acid buffer solution (pH=8.8) to make the total volume to 400 μl. To this solution, 50 μl of a 1 mM S-2444 solution is added and the mixture is incubated at a temperature of 37° C. for 5 minutes in a constant temperature bath. Then, 50 μl of a 500 unit/ml human urokinase is added and the mixture is incubated at a temperature of 37° C. for 5 minutes. Thereafter, 50 μl of 50% acetic acid is added to terminate the reaction. The absorbance of the p-nitroaniline formed in the reaction mixture is measured at 405 nm. Thus, the concentration I50 (μmol) of the inhibitor sample, at which the absorbance is one half (i.e., 1/2) of that obtained in the absence of the inhibitor sample, is determined.

bovine thrombin = bovine thrombin (Bos taurus, UniProt P00735); assay: Antithrombin activity: inhibition of fibrin formation from fibrinogen; type: biochemical
Description: (i) Determination of inhibition activity against fibrin formation
An inhibitor sample is dissolved in a 0.18M borate-physiological salt buffer solution (pH=7.4) to make the total volume to 500 μl. To this solution, 400 μl of a 0.2% bovine fibrinogen solution and 100 μl of a 4 unit/ml bovine thrombin solution are added at a temperature of 37° C. in a constant temperature bath. Thus, a coagulation time is determined. The inhibitor concentration I50 (μmol), at which the coagulation time obtained in the absence of the inhibitor is extended twice, is determined.

human plasma kallikrein, sequence (P03952 391-638 limits assumed): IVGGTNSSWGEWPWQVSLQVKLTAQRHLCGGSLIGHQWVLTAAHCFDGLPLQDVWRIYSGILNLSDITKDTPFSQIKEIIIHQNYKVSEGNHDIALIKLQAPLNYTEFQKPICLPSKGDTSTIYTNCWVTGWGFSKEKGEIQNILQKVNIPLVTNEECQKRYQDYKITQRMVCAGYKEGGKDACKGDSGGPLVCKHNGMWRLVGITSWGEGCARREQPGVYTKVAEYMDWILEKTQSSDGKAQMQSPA
human plasma kallikrein, sequence (P03952 20-390 partner limits assumed): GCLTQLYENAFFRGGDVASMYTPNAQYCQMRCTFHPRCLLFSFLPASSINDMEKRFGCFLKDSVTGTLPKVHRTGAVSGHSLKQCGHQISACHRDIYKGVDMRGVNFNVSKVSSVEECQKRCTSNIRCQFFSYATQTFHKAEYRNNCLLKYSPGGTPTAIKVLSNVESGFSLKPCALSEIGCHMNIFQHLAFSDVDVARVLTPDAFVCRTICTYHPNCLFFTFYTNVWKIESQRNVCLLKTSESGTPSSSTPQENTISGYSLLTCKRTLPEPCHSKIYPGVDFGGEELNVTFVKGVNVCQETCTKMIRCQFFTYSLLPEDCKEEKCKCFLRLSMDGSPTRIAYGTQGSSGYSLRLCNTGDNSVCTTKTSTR
T1 sequence (P00747 581-810 limits assumed): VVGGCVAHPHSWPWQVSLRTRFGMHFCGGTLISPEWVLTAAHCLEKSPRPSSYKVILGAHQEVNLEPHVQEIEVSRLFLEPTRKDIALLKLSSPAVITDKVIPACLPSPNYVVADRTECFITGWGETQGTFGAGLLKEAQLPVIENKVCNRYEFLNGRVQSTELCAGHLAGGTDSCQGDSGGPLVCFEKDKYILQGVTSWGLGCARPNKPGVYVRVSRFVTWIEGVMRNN
T1 sequence (P00747 97-580 partner limits assumed): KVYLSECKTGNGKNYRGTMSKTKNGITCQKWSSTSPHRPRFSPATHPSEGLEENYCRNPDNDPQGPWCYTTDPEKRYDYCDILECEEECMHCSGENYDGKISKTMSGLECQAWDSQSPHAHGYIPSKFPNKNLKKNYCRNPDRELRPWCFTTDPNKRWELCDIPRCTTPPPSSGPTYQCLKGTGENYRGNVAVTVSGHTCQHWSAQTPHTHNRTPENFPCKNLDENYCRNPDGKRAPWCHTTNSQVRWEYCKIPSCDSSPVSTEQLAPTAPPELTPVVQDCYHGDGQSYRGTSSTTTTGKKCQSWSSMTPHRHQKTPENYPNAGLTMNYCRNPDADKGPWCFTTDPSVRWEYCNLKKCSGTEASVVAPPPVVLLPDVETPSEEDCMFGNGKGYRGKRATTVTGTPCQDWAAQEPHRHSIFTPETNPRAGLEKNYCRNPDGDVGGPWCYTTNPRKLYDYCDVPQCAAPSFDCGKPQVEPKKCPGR

| Structure (SMILES) | IC50 (human plasmin [1]) [nM] | IC50 (human plasmin [2]) [nM] | IC50 (bovine trypsin) [nM] | IC50 (human plasma kallikrein) [nM] | IC50 (human urokinase) [nM] | IC50 (bovine thrombin) [nM] |
| --- | --- | --- | --- | --- | --- | --- |
| CC(=O)c1ccc(NC(=O)[C@H](Cc2ccc(OCc3ccc(Cl)cc3)cc2)NC(=O)[C@H]2CC[C@H](CN)CC2)cc1 [Compound No. 5, N-(trans-4-aminomethylcyclohexylcarbonyl)-4-(4-chlorobenzyloxy)-L-phenylalanine 4-acetylanilide] | 900 | 390 | 840 | 460 | 25000 |  |
| CC(=O)c1ccc(NC(=O)[C@H](Cc2ccc(OCc3ccc(F)cc3)cc2)NC(=O)[C@H]2CC[C@H](CN)CC2)cc1 [Compound No. 12] | 790 | 410 |  | 840 | 11000 |  |
| NCc1ccc(C(=O)N[C@@H](Cc2ccc(OCc3ccccc3)cc2)C(=O)NC2CCCCC2)cc1 [Compound No. 114, N-(4-aminomethylbenzoyl)-4-benzyloxy-L-phenylalanine cyclohexylamide hydrochloride] | 3200 | 1400 | 9500 | 40000 | > 100000 |  |
| CC(=O)c1ccc(NC(=O)[C@H](Cc2ccc(OCc3ccc(Br)cc3)cc2)NC(=O)[C@H]2CC[C@H](CN)CC2)cc1 [compound 17] | 1500 | 280 |  | 560 | 23000 |  |
| NC[C@H]1CC[C@H](C(=O)N[C@@H](Cc2ccc(OCc3ccccc3)cc2)C(=O)Nc2ccc(C(=O)c3ccccc3)cc2)CC1 [compound 19] | 1300 | 280 |  | 1200 | 19000 |  |
| CC(=O)c1ccc(NC(=O)[C@H](Cc2ccc(OCc3ccc(Cl)c(Cl)c3)cc2)NC(=O)[C@H]2CC[C@H](CN)CC2)cc1 [compound 45] | 580 | 91 | 840 | 460 | 70000 |  |
| Cc1ccc(NC(=O)[C@H](Cc2ccc(OCc3ccccc3)cc2)NC(=O)c2ccc(CN)cc2)cc1 [compound 63] | 5600 | 1400 | 10000 | 24000 | > 100000 | > 50000 |
| Cc1ccc(NC(=O)[C@H](Cc2ccc(OCc3ccccc3)cc2)NC(=O)c2ccc(CN)cc2)cc1C [compound 65] | 2900 | 1000 | 5000 | 22000 | > 200000 | > 50000 |
| NC[C@H]1CC[C@H](C(=O)N[C@@H](Cc2ccc(OCc3cccc(Cl)c3)cc2)C(=O)Nc2ccc(C(=O)c3ccccc3)cc2)CC1 [compound 67] | 1100 | 140 | 440 | 1200 | 40000 | > 20000 |
| CC1CCC(NC(=O)C(Cc2ccc(OCc3cccc(Cl)c3)cc2)NC(=O)c2ccc(CN)cc2)CC1C (stereo not shown) [compound 103] | 780 | 120 | 1200 | 18000 | > 100000 |  |
| CC1CCC(NC(=O)C(Cc2ccc(OCc3ccc(F)cc3)cc2)NC(=O)c2ccc(CN)cc2)CC1C (stereo not shown) [compound 106] | 1400 | 540 | 3000 | 19000 | > 150000 | > 50000 |
| NCc1ccc(C(=O)NC(Cc2ccc(OCc3ccccc3)cc2)C(=O)NCc2ccc(F)cc2)cc1 (stereo not shown) [compound 113] | 8300 | 1700 | 18000 | > 25000 | > 20000 | > 50000 |
| CC(=O)c1ccc(NC(=O)[C@H](Cc2ccc(OCc3cc(Cl)ccc3Cl)cc2)NC(=O)[C@H]2CC[C@H](CN)CC2)cc1 [compound 125] | 490 | 130 | 800 | 380 | 47000 |  |
| N=C(N)c1ccc(NC(=O)[C@H](Cc2ccc(OCc3ccccc3)cc2)NC(=O)[C@H]2CC[C@H](CN)CC2)cc1 [compound 126] | 1500 | 830 | 450 | 3500 | 6300 | > 200000 |
